Measurements: patent publication US7914891B2, “Wipes including microencapsulated delivery vehicles and phase change materials” (Kimberly-Clark Worldwide, Inc., priority 2005, dated 2011)
Like-named read-outs stand apart in the source and are kept apart here.

Columns and labels:
[1] = 35 wt % in mineral oil, added to 7.0 grams de-ionized water
Description: All five samples were then individually added to 7.0 grams de-ionized water and the resulting temperature rise was measured using a Barnant Scanning Thermocouple (available from Therm-X of California, Hayward, Calif.).
All four samples were then added to 7.0 grams de-ionized water and the resulting temperature rise was measured using a J type Thermocouple (available from Omega Engineering, Inc., Stamford, Conn.).

[2] = Heat generation after soaking in de-ionized water; type: physicochemical; conditions: in 7.0 grams de-ionized water; coated samples crushed after 0.5 to 2.0 hours
Description: To analyze the samples for heat generation, 0.80 grams of each sample of calcium chloride including a moisture protective layer was added to four separate vials each containing 7.0 grams of de-ionized water and 0.73 grams of the control sample was added to a fifth vial containing 7.0 grams of de-ionized water. Using a J type thermocouple (commercially available from Omega Engineering, Inc., Stamford, Conn.) and a data logger, the temperature of the samples was measured over a period of 180 seconds. The four vials containing the samples of microencapsulated heat delivery vehicle including a moisture protective layer were allowed to remain in the de-ionized water for 0.5 hours, 1.0 hour, 1.5 hours, and 2.0 hours, respectively, at which time the samples were activated by crushing the samples by hand using a metal rod. The temperature of the water in the four vials was measured for a period of 180 seconds after crushing the samples.

[3] = test system: Methicillin-resistant Staphylococcus aureus; conditions: 22° C. compared to 50° C.; 0.005% active PHMB
Description: This Example utilized 1.5-milliliter tubes containing a 1-milliliter blend of phosphate-buffered saline (pH 7.2) and 5% (w/v) bovine serum albumin soil. The tubes were placed in electric heat blocks set for 22° C., 30° C., 40° C. and 50° C., respectively. The tubes remained in the electric heat blocks for approximately 10 minutes.
After 10 minutes, 0.005% (by weight) active polyhexamehtylene biguanide (PHMB) (commercially available as Cosmocil® CQ from Arch Biocides, Inc., United Kingdom) was added to two tubes at each temperature level. Duplicate tubes without PHMB at each temperature were also made.
The tubes were then vortexed and Methicillin-resistant Staphylococcus aureus (approximately 1×10^5 colony forming units (CFU)) was then added to each tube. All of the tubes were then placed back into the heat blocks at their respective temperatures.
Following a 10-minute contact time, 0.1 milliliters of each sample was transferred to 0.9 milliliters letheen broth to neutralize the PHMB activity. The letheen samples were then plated in duplicate on Tryptic Soy agar plates using a WASP2 spiral plater (commercially available from Don Whitley Scientific, Ltd., Yorkshire, United Kingdom). The plates were inverted and incubated at 37±2° C. for 48 hours.
After 48 hours, the plates were evaluated using a total plate count to determine the biocidal efficacy of each sample.

## [Ca+2].[Cl-].[Cl-] [anhydrous calcium chloride, calcium chloride]
[1]; particle size 149-355 micrometers vs four other size ranges
  rate of heat generation: generated heat at the highest rate

## [Ca+2].[Cl-].[Cl-] [Example 11 control sample, calcium chloride]
[2]
  heat generation after contact with water: produced heat immediately upon being introduced into water but only for a short period of time

## [Cl-].[Cl-].[Mg+2] [anhydrous magnesium chloride, magnesium chloride]
[1]; particle size less than 250 micrometers vs three other size ranges
  rate of heat generation: generated heat at the highest rate

## polyhexamethylene biguanide [PHMB]
[3]
  LOG10 difference in efficacy: greater than 1.4 LOG10
